Data taken from patent US6451288B1, “Method of treating lung diseases with uridine 5′-diphosphate and analogs thereof” (The University of North Carolina at Chapel Hill, priority 1997, dated 2002).
Each block holds one molecule with its values, some of them ahead of it.

Columns and labels:
human P2Y6 receptor = molecular target: T1, human P2Y6 receptor (Homo sapiens, UniProt Q15077); experiment: Inositol phosphate accumulation in 1321N1 astrocytoma cells overexpressing the human P2Y6 receptor; format: cell-based; conditions: 60 min, hexokinase/glucose present
T1 construct: expressed in transfected cells
T1 sequence (Q15077 whole entry): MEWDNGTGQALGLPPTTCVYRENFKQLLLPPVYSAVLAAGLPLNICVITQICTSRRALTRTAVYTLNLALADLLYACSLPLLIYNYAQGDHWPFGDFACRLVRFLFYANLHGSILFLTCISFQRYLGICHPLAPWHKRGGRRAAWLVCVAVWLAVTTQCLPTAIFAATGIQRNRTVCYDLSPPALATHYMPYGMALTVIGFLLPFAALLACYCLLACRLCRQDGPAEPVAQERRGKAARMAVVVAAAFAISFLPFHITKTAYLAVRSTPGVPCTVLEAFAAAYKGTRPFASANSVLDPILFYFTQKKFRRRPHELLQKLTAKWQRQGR
Description: The following method was used for measuring inositol phosphate accumulation of the UDP analogs described within this example as drugs. 1321N1 astrocytoma cells, stably overexpressing the human P2Y6 receptor (Nicholas, et al., Mol. Pharmacol. 50, 224-229 (1996)), were seeded into 96 well plates (7500 cells/well) in DMEM-H supplemented with 10% FCS. After 48 hours, the growth media was replaced with inositol-free DMEM-H supplemented with 2.5% dialyzed FCS and [^3H]-inositol (0.2 uCi/well) to radiolabel hormone-responsive inositol phospholipid pools. Cells were stimulated 48 hours later. At the time of assay, the culture media was supplemented with 25 mM HEPES (pH 7.4) and 10 mM […] to prevent hydrolysis of [^3H]-inositol phosphates. In addition, hexokinase (0.03 U/well) and glucose (50 mM final concentration) was added to the cultures to provide an enzymatic mechanism for the depletion of nucleoside triphosphates contaminating drug solutions or released from cells prior to/or during cell stimulation reactions. Drugs were diluted in phosphate buffered saline containing hexokinase/glucose and incubated at 37° for 30 minutes prior to addition to cells. Reactions were terminated after 60 minutes by rapid aspiration of media followed by the addition of ice cold EDTA (1.0 mM) and incubation on ice for at least 15 minutes prior to resolution of [^3H]-inositol phosphates by ion exchange chromatography as described (Brown, et. al., supra).

[1] = system: human nasal epithelial cells; experiment: Hydrolysis of [3H]UTP and [3H]UDP on human nasal epithelial cell surfaces; format: in vitro ADME; conditions: for Nucleotide Hydrolysis MUCOSAL / Nucleotide Hydrolysis SEROSAL: 20 min incubation period, mean ± range of two experiments; for Nucleotide Hydrolysis SEROSAL: serosal surface
Description: (§1) Nasal monolayers were grown to confluence on 6.5 mm Transwells (Costar) as indicated above. The cells were washed twice and preincubated with 300 μl HEPES-buffered (pH, 7.4) DMEM medium for at least one hour prior to the addition of the [^3H]-nucleotides to ensure that any endogeneously released ATP was degraded. Incubations were initiated by addition of 2 μM [^3H]UTP or [^3H]UDP (0.5 μCi each) to either cell surface. Incubations were terminated at the indicated times by transferring the medium to a tube containing 30 μl 50 mM EDTA and boiled for 2 min. Nucleotides were separated by HPLC (Shimadzu Scientific Instruments, Inc., Columbia, Md.) via a strong anion exchange column (Rainin Instrument Co., Emeryville, Calif.) using a two solvent system consisting of buffer A (45 mM ammonium formate, pH 4.6) and buffer B (250 mM sodium phosphate, pH 2.7). A linear gradient was developed from 100% buffer A to 100% B during the first 25 min. The column then was eluted with 100% buffer B for the […] and with 100% buffer A for an additional 15 min from 45 to 60 min. Absorbance at 260 nm was monitored with a LSA UV detector (Shimadzu), and radioactivity was monitored on-line with a Flo-One detector (Packard Instrument Co., Meridien, Conn.). [^3H]Nucleotides and [^3H]nucleosides were quantitated as previously described. Id. Confluent polarized cells were incubated for 20 min at 37° C. in the presence of 1 μM (0.2 μCi) of [3H]UTP, [^3H]UDP, or [^3H]UDP combined with 100 μM ATP. All additions were to the mucosal bath (300 μl final volume). Incubations were terminated by transferring the mucosal medium to an Eppendorf tube containing 30 μl 50 mM EDTA, followed by boiling. [^3H]Species were separated by HPLC as indicated in Example 6. Hydrolysis of both [^3H]UTP and [^3H]UDP on the surface of human nasal epithelial cells was determined on both cell surfaces by the following procedures: primary cultures of HNE cells were grown to confluence on 6.5 mm Transwells as a polarized epithelium. The cells were washed twice with pre-warmed DMEM-HEPES medium (pH 7.4), and were pre-incubated for 1 hour at 37° C with 0.5 mL of medium added on each side. Incubations were initiated by the addition 50 μl of 10 μM (0.5 μCi) [^3H]UTP or [^3H]UDP on the indicated cell surface. Medium samples were collected during a 20 min incubation period and analyzed by HPLC as described in Example 6. The values represent the mean (±range from the mean) from two experiments performed with duplicate samples.

[2] = system: human nasal epithelial cells; experiment: [3H]inositol phosphate formation in polarized human nasal epithelial cells; format: cell-based; conditions: Homo sapiens, Epithelial cell, 10 min; added to mucosal medium, 10 min; read-out: EC50 for stimulating inositol phosphate formation
Description: (§2) Human nasal epithelial cells were harvested from turbinates using protease XIV (Sigma, St. Louis, Mo.) for 24-48 h at 4° C., as previously described. R. Wu, et al., Am. Rev. Respir. Dis. 132, 311-320 (1985). Cytosolic Ca^2+ and inositol phosphate measurements were made on nasal cell monolayers plated on porous Transwell Col filters (pore diameter 0.45 μm; Costar, Cambridge, Mass.) and maintained in Ham's F12 media supplemented with 10 ng/mL epidermal growth factor, 3.75 ng/mL endothelial cell growth factor, 500 ng/mL hydrocortisone, 5 ng/mL insulin, and 1 mM CaCl2 (Ham's F12+4X medium). Assays were carried out 7 to 10 days after seeding, a time coincident with the development of the maximal transepithelial potential difference according to N. Nakahata & T. K. Harden, Biochem. J. 241, 337-344 (1987).
Confluent human nasal epithelial cells as described in Example 1 were labeled for 18 h in inositol-free DMEM containing 4.5g/L glucose and 5 μCi/mL of [^3H]myo-inositol. These cells were pre-incubated with 10 mM LiCl and challenged with agonists for an additional 10 min. No changes of medium were made subsequent to addition of [^3H]myo-inositol to avoid release of endogenous ATP from stressed cells. E. R. Lazarowski et al., Br. J Pharmacol. 116, 1619-1627 (1995). Incubations were terminated by addition of 5% ice-cold trichloroacetic acid and the resultant [^3H]inositol phosphates were separated on Dowex AG1-X8 columns as described in A. M. Paradiso et al., Nature 377, 643-646 (1995).

[3] = system: human nasal epithelial cells; experiment: Cl- secretion (transepithelial potential difference, Ussing chamber) in human nasal epithelial cells; format: cell-based
Description: as §2
(§3) Nasal cells grown on Transwell Col filters affixed to O-rings were maintained in F12+4X medium and studied 7-10 days after cell plating as described above. For Ca^2+i measurements, cells were loaded with Fura-2 and mounted in a miniature Ussing chamber over an objective of a microscope (Zeiss) coupled to a microfluorimeter, and cytosolic Ca^2+i levels were quantitated as previously described in Paradiso et al., supra. The fluorescence intensity ratio (excitation 340/380; emission λ 450 nm) was collected from a field of 30-40 nasal cells on monolayers and converted to Ca^2+ as previously described in E. H. Larsen et al, J. Physiol. 424, 109-131 (1990). For simultaneous measurements of Cl^− secretion, the transepithelial potential difference (TEP) was measured by a Voltage-Clamp/Pulse Generator (Model VCC600, Physiologic Instruments, San Diego, Calif.) and recorded on a two-channel recorder (Linsesis Model L200S). To calculate changes in Cl^− secretory current (ΔICl^−), a defined 1 sec current pulse was delivered across the monolayer every 10 sec. The nasal tissue was converted from its native Na^+ absorptive state to a Cl^− secretory state by exposing monolayers to a luminal medium containing 0 Na^+/low Cl^− and to a basolateral medium of Krebs bicarbonate Ringer solution.

[4] = system: human nasal epithelial cells; experiment: Cytosolic Ca2+ measurement (Fura-2) in human nasal epithelial cells; format: cell-based
Description: as §2, §3

[5] = Hydrolysis of [3H]UTP and [3H]UDP on human nasal epithelial cell surfaces; format: in vitro ADME; conditions: human, pH 7.4; mucosal, time course; read-out: Half life (t½)
Description: as §1

EC50 (human P2Y6 receptor): 3 µM
SMILES: CCCCCCOc1ccn([C@@H]2O[C@H](COP(=O)(O)OP(=O)(O)O)[C@@H](O)[C@H]2O)c(=O)n1 [Compound B, 4-Hexyloxyuridine 5′-diphosphate]

EC50 (human P2Y6 receptor): 4.7 µM
SMILES: COc1ccn([C@@H]2O[C@H](COP(=O)(O)OP(=O)(O)O)[C@@H](O)[C@H]2O)c(=O)n1 [Compound D, 4-Methoxyuridine 5′-diphosphate]

EC50 (human P2Y6 receptor): 55.1 µM
SMILES: O=c1nc(N2CCOCC2)ccn1[C@@H]1O[C@H](COP(=O)(O)OP(=O)(O)O)[C@@H](O)[C@H]1O [Compound F, 4-(N-morpholino)uridine 5′-diphosphate]

EC50 (human P2Y6 receptor): 1.8 µM
SMILES: CCCCCCSc1ccn([C@@H]2O[C@H](COP(=O)(O)OP(=O)(O)O)[C@@H](O)[C@H]2O)c(=O)n1 [Compound J, 4-Hexylthiouridine 5′-diphosphate]

EC50 (human P2Y6 receptor): 8.6 µM
SMILES: O=c1nc(NC2CCCC2)ccn1[C@@H]1O[C@H](COP(=O)(O)OP(=O)(O)O)[C@@H](O)[C@H]1O [Compound I, N-Cyclopentylcytidine 5′-diphosphate]

EC50 (human P2Y6 receptor): 25.5 µM
SMILES: CCCCCCNc1ccn([C@@H]2O[C@H](COP(=O)(O)OP(=O)(O)O)[C@@H](O)[C@H]2O)c(=O)n1 [Compound E, N-hexylcytidine 5′-diphosphate]

EC50 (human P2Y6 receptor): 41.7 µM
SMILES: CN(C)c1ccn([C@@H]2O[C@H](COP(=O)(O)OP(=O)(O)O)[C@@H](O)[C@H]2O)c(=O)n1 [Compound C, N,N-dimethylcytidine 5′-diphosphate]

Further lines, the molecule ahead of its results:

SMILES: O=c1ccn([C@@H]2O[C@H](COP(=O)(O)OP(=O)(O)OP(=O)(O)O)[C@@H](O)[C@H]2O)c(=O)[nH]1 [UTP, uridine 5′-triphosphate, reference compound]
Hydrolysis rate of mucosal UTP relative to mucosal UDP ([1]; mucosal): 2-3 fold
EC50 [2]: 0.28 ± 0.035 µM
Cl- secretory response (ΔICl-), mucosal bath ([3]; 100 μM, mucosal): 74±11 μA/cm^2
Cl- secretory response (ΔICl-), serosal bath ([3]; 100 μM, serosal): 34±3 μA/cm^2
ΔCl-, UDP-treated cells ([3]; UDP-treated cells, n=8, the values are: ΔICl- (Cl- secretory current)): -61 ± 10 µA/cm²
ΔICl-, control cells ([3]; control cells, n=12): −74±11 μA/cm^2
ΔCa2+, UDP-treated cells ([4]; UDP-treated cells, n=8): 310 ± 35 nM
ΔCa2+, control cells ([4]; control cells, n=19): 374 ± 24 nM

SMILES: Cc1cn([C@@H]2O[C@H](COP(=O)(O)OP(=O)(O)O)[C@@H](O)[C@H]2O)c(=O)[nH]c1=O [Compound A, 5-Methyluridine 5′-diphosphate]
EC50 (human P2Y6 receptor): 0.5 µM

SMILES: O=c1ccn([C@@H]2O[C@H](COP(=O)(O)OP(=O)(O)OP(=O)(O)O)[C@@H](O)[C@H]2O)c(=O)[nH]1 [[^3H]UTP]
Hydrolysis ([1]; 1 μM, 20 min, mucosal surface, 37° C.): 73±16%
Nucleotide Hydrolysis MUCOSAL ([1]; mucosal surface): 17 ± 22
Nucleotide Hydrolysis SEROSAL [1]: 98 ± 11
half-life [5]: 14 ± 2 min

SMILES: O=c1ccn([C@@H]2O[C@H](COP(=O)(O)OP(=O)(O)O)C[C@H]2O)c(=O)[nH]1 [Compound H, 3′-Deoxyuridine 5′-diphosphate]
EC50 (human P2Y6 receptor): 2.1 µM

SMILES: O=c1ccn([C@@H]2O[C@H](COP(=O)(O)OP(=O)(O)O)[C@@H](O)[C@H]2O)c(=O)[nH]1 [[^3H]UDP]
Nucleotide Hydrolysis MUCOSAL ([1]; mucosal surface): 87 ± 6
Nucleotide Hydrolysis SEROSAL [1]: 70 ± 9
half-life [5]: 27 ± 3 min

SMILES: Nc1ncnc2c1ncn2[C@@H]1O[C@H](COP(=O)(O)OP(=O)(O)OP(=O)(O)O)[C@@H](O)[C@H]1O [ATP, reference compound]
Responses following multiple additions of UDP ([4]; after multiple additions of UDP): retained

SMILES: O=c1[nH]c(=O)n([C@@H]2O[C@H](COP(=O)(O)OP(=O)(O)O)[C@@H](O)[C@H]2O)cc1C#Cc1ccccc1 [Compound G, 5-(Phenylethynyl)uridine 5′-diphosphate]
EC50 (human P2Y6 receptor): 0.02 µM
